Test results reported in paper PMC11172336, “Exploring Syndecan-4 and MLP and Their Interaction in Primary Cardiomyocytes and H9c2 Cells” (Cells, 2024).
One block for each compound: values may come before it. Where a SMILES comes first, the peptide text is derived from it. Where no end group is shown, it is not given here. The star is where a group is joined. Biotin = O=C1N[C@H]2[C@H](CS[C@H]2CCCCC(=O)*)N1; Ahx = NCCCCCC(=O)O

Assays:
recombinant 6xHis-MLP-WT = target: T1, recombinant 6xHis-MLP-WT (Homo sapiens, UniProt P50461); test: Biacore surface plasmon resonance of SDC4cyt and MLP; assay type: binding; conditions: SPR, biotin-ahx-SDC4cyt immobilized on SA chip, 6xHis-MLP-WT injected, 1:1 Langmuir fit, n = 4
T1 construct: All MLP recombinant proteins were full length and had 6xHis tags at the N-terminus; purchased GenScript Biotech Corp
T1 sequence (P50461 1-194): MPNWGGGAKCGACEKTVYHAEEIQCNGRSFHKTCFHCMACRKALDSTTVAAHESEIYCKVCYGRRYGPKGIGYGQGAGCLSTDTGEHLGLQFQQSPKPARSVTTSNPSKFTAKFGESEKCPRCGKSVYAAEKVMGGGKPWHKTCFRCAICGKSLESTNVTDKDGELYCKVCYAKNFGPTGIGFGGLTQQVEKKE
Description: A streptavidin (SA) chip (BR1000032, Cytiva, Marlborough, MA, USA) was conditioned with three 1 min injections of 1 × Biacore running buffer (BR100826, Cytiva, Marlborough, MA, USA), and biotinylated SDC4cyt was immobilized at 133–350 resonance units (RUs). Recombinant 6xHis-MLP-WT was dialyzed into 1 × Biacore running buffer, and increasing concentrations were injected over the chip’s surface at a flow rate of 30 µL per minute for 180 s. For the different runs, concentration ranges spanned 2.9–14.6 nM, 1.2–100 nM, and 21.2–500 nM. The dissociation time was set to 600 s. Sensorgrams were analyzed using the Biacore X100 software (Version 2.0.1) with the assumption of 1:1 binding (Langmuir binding model).
The binding of SDC4cyt and MLP was further investigated with surface plasmon resonance (SPR), where a biotinylated SDC4cyt peptide was immobilized on an SA chip, and a serial dilution of recombinant 6xHis-MLP-WT protein was injected over the chip. The results were analyzed by fitting with a 1:1 interaction model (Langmuir). The dissociation equilibrium constant (kD) was 15.6 ± 7.8 nM, with an association constant (ka) of (8.7 ± 1.4) × 10^4 M^−1 s^−1 and a dissociation rate constant (kd) of (12.2 ± 5.3) × 10^−4 s^−1, indicating a strong interaction (Figure 2D). […]

[1] = system: cytoplasmic domain of syndecan-4 (SDC4cyt); test: ELISA-based assay, wells coated with MLP peptides, overlaid with biotin-SDC4cyt; assay type: binding, human; conditions: for biotinylated SDC4cyt binding to mutated MLP peptide compared with MLP-WT peptide: 10 µg 30-mer peptide coated, SDC4cyt normalized to SDC4scram, related to MLP-WT (100%), n = 16, Mann-Whitney U; for biotin-SDC4cyt binding to 30 amino acid-long overlapping MLP-WT peptides: 10 µg peptide coated, biotinylated peptide 2-5 µM, 2 h 37 °C, absorbance 450 nm, normalized to SDC4scram, n = 12-28
Description: (§1) 96-well ELISA microplates were coated with 10 µg of WT or mutated human 6xHis-MLP recombinant proteins or 10 µg of MLP peptides in PBS, and rotated at 4 °C overnight. Each well was rinsed with 0.05% Tween-20 in PBS (PBS-T) and blocked with 0.5% gelatin (G-1890, Sigma Merck, Darmstadt, Germany) for one hour at room temperature before incubation with the given biotinylated peptides at a final concentration of 2–5 µM for two hours at 37 °C with gentle agitation. Each well was then thoroughly washed with PBS-T five times before incubation with 100 µL of Biotin-HRP (A0185, Sigma Merck, Darmstadt, Germany) for 30 min at room temperature with gentle agitation. Each well was then washed with PBS-T 5 times before incubation with 100 µL of Ultra TMB substrate solution (34028, Thermo Fisher Scientific, Waltham, MA, USA) for 15–30 min at room temperature with gentle agitation to develop a blue color signal. The reaction was stopped with 100 µL of 2 M hydrochloric acid (HCl) per well (yellow color development). The absorbance of each well was read at 450 nm (Hidex sense multimodal microplate reader, Åbo, Finland).
We next aimed to identify the syndecan-4-MLP-binding domain(s). […]
Multiple human mutations in MLP are associated with hypertrophic cardiomyopathy (HCM) or dilated cardiomyopathy (DCM) (illustrated in Figure 2E). […] To test whether syndecan-4 binding to MLP was affected by any of the HCM- or DCM-associated mutations, we used an ELISA-based assay, where wells were coated with WT or mutated MLP peptide sequences.

human MLP = test: Peptide array overlay of MLP 20-mers with biotinylated peptide; assay type: binding; conditions: 20-mers with 3 amino acid offset, overlay overnight at 4 °C, n = 3
Description: Human, rat, and mouse MLP were synthesized as overlapping 20-mers with three amino acid offsets onto cellulose membranes by an automated MultiPep peptide synthesizer (INTAVIS Bioanalytical instruments AG, Tübingen, Germany). After blocking, membranes were incubated with a biotin-ahx-SDC4cyt (SDC4cyt) peptide, a scrambled biotin-ahx-SDC4cyt (SDC4scram), a custom-made MLP antibody (#R06991, GenScript Biotech Corp, Piscataway, NJ, USA), or a commercially available MLP antibody (sc-166930, Santa Cruz, Dallas, TX, USA) overnight at 4 °C. The remaining consequent steps were identical to those performed for immunoblotting, as described further below.
We next aimed to identify the syndecan-4-MLP-binding domain(s). A biotinylated peptide covering the cytoplasmic domain of syndecan-4 (SDC4cyt) was overlaid onto 20’mer overlapping peptides covering the full length of human MLP.

recombinant 6xHis-MLP = test: ELISA-based MLP self-association assay, coated recombinant 6xHis-MLP overlaid with biotinylated MLP-WT peptides; assay type: binding, human; conditions: 10 µg protein coated; biotinylated peptide 2-5 µM; PBS-only wells subtracted; n = 8
Description: as §1
To more precisely map the sites of self-association in MLP, an ELISA-based screening method was used. Full-length recombinant 6xHis-MLP-WT protein was coated into wells and overlayed with biotinylated overlapping MLP-WT peptides, together representing the full-length MLP sequence. […] Furthermore, to test whether mutations could affect self-association, wells were instead coated with mutated recombinant 6xHis-MLP proteins and overlayed with the biotinylated MLP-WT peptides, mimicking a heterozygous interaction. Compared to the WT recombinant protein, MLP peptides aa 50–79 and 125–154 bound weaker to most of the mutated MLP recombinant proteins, except for the HCM-associated L44P (at aa 125–154) and C58G mutations (at aa 50–79 and […]) (Figure 5D, left and right panel). A larger increase in N- and C-terminal binding was also observed for C58G.

kon (recombinant 6xHis-MLP-WT; read-out: association constant (ka)): 87000 M⁻¹ s⁻¹
koff (recombinant 6xHis-MLP-WT; read-out: dissociation rate constant (kd)): 0.00122 s⁻¹
Compound: CC[C@H](C)[C@H](NC(=O)[C@@H]1CCCN1C(=O)[C@H](CCCCN)NC(=O)[C@H](CCCCN)NC(=O)CNC(=O)[C@H](CC(C)C)NC(=O)[C@H](CC(=O)O)NC(=O)[C@H](Cc1ccc(O)cc1)NC(=O)[C@H](CO)NC(=O)CNC(=O)[C@H](CCC(=O)O)NC(=O)[C@H](CC(=O)O)NC(=O)[C@H](CCCCN)NC(=O)[C@H](CCCCN)NC(=O)[C@H](CCCCN)NC(=O)[C@H](CCSC)NC(=O)[C@H](CCCNC(=N)N)NC(=O)CCCCCNC(=O)CCCC[C@@H]1SC[C@@H]2NC(=O)N[C@@H]21)C(=O)N[C@@H](Cc1ccc(O)cc1)C(=O)N[C@@H](CCCCN)C(=O)N[C@@H](CCCCN)C(=O)N[C@@H](C)C(=O)N1CCC[C@H]1C(=O)N[C@H](C(=O)N[C@@H](CC(N)=O)C(=O)N[C@@H](CCC(=O)O)C(=O)N[C@@H](Cc1ccccc1)C(=O)N[C@@H](Cc1ccc(O)cc1)C(=O)N[C@@H](C)C(=O)O)[C@@H](C)O [SDC4cyt] ({Biotin-Ahx}-RMKKKDEGSYDLGKKPIYKKAPTNEFYA-OH)

Compound: AAHERGIYCKVCYGRRYGPKGIGYGQGAGC [MLP-S54R,E55G, 30-mer human MLP peptide with S54R,E55G mutation]
biotinylated SDC4cyt binding to mutated MLP peptide compared with MLP-WT peptide [1]: significantly weaker

biotinylated SDC4cyt binding to mutated MLP peptide compared with MLP-WT peptide [1]: tendency of reduced binding
Compound: AAHESEIYCKVCYGCRYGPKGIGYGQGAGC [MLP-R64C, 30-mer human MLP peptide with R64C mutation]

biotinylated SDC4cyt binding to mutated MLP peptide compared with MLP-WT peptide [1]: tendency of reduced binding
Compound: AAHESEIYCKVCYGRRYGPKGIRYGQGAGC [MLP-G72R, 30-mer human MLP peptide with G72R mutation]

biotinylated SDC4cyt binding to mutated MLP peptide compared with MLP-WT peptide [1]: tendency of reduced binding
Compound: AAHESEIYCKVCYGRRYGPRGIGYGQGAGC [MLP-K69R, 30-mer human MLP peptide with K69R mutation]

biotinylated SDC4cyt binding to mutated MLP peptide compared with MLP-WT peptide [1]: significantly weaker
Compound: CNGRSFHKTCFHCMACRKALDRTTVAAHES [MLP-S46R, 30-mer human MLP peptide with S46R mutation]

biotinylated SDC4cyt binding to mutated MLP peptide compared with MLP-WT peptide [1]: significantly weaker
Compound: CNGRSFHKTCFHCMACRKAPDSTTVAAHES [MLP-L44P, 30-mer human MLP peptide with L44P mutation]

binding to 20-mer overlapping human MLP peptides on membrane (human MLP): did not recognize any human MLP sequence
Compound: GTKYPKMDRGKLFKYKAKPEDNESAYIK [SDC4scram]

biotin-SDC4cyt binding to 30 amino acid-long overlapping MLP-WT peptides [1]: binding was confirmed
Compound: MLP-WT peptide aa 25–54: 30 amino acid-long overlapping MLP-WT peptide, amino acids 25–54 (CNGRSFHKTCFHCMACRKALDSTTVAAHES)

biotin-SDC4cyt binding to 30 amino acid-long overlapping MLP-WT peptides [1]: binding was confirmed
binding of biotinylated MLP-WT peptide to full-length recombinant 6xHis-MLP-WT (self-association) (recombinant 6xHis-MLP): strongest binding
Compound: MLP-WT peptide aa 50–79: 30 amino acid-long overlapping MLP-WT peptide, amino acids 50–79, with or without N-terminal biotin (AAHESEIYCKVCYGRRYGPKGIGYGQGAGC)

biotin-SDC4cyt binding to 30 amino acid-long overlapping MLP-WT peptides [1]: binding was confirmed
binding of biotinylated MLP-WT peptide to full-length recombinant 6xHis-MLP-WT (self-association) (recombinant 6xHis-MLP): Minimal binding
Compound: MLP-WT peptide aa 100–129: 30 amino acid-long overlapping MLP-WT peptide, amino acids 100–129, with or without N-terminal biotin (RSVTTSNPSKFTAKFGESEKCPRCGKSVYA)

biotin-SDC4cyt binding to 30 amino acid-long overlapping MLP-WT peptides [1]: binding was confirmed
binding of biotinylated MLP-WT peptide to full-length recombinant 6xHis-MLP-WT (self-association) (recombinant 6xHis-MLP): strongest binding
Compound: MLP-WT peptide aa 125–154: 30 amino acid-long overlapping MLP-WT peptide, amino acids 125–154, with or without N-terminal biotin

binding of biotinylated MLP-WT peptide to full-length recombinant 6xHis-MLP-WT (self-association) (recombinant 6xHis-MLP): Minimal binding
Compound: MLP-WT peptide aa 165–194: biotinylated 30-mer MLP-WT peptide, amino acids 165–194 (Biotin-ELYCKVCYAKNFGPTGIGFGGLTQQVEKKE; cysteine pairing not given here)

biotinylated SDC4cyt binding to mutated MLP peptide compared with MLP-WT peptide [1]: did not alter the binding
Compound: MPNRGGGAKCGACEKTVYHAEEIQCNGRSF [MLP-W4R, 30-mer human MLP peptide with W4R mutation]
